# According to patent US8080582B2, “Derivatives of 8-epiblechnic acid and their effects on down-regulation of endothelin (ETA) receptor mRNA” (ScinoPharm Taiwan Ltd., priority 2008, dated 2011):
# Legend:
# Assay type in all cases: cell-based
# [1] = system: prostate cancer cells (PC-3); test: MTT cell viability, prostate cancer cells; settings: for Cell viability at higher concentrations: PC-3, 0.3 mM (or higher), 48 hrs, MTT
# Protocol: (§1) The cells (1×10^5 cells/well in 24-well plates) were cultured for 24 hrs. Different concentrations of Sal-B and its analogs (0, 50, 100, 150, 200, 250 μg/ml) were added to treat the cells. After treating for 48 hrs, 100 μl MTT solution was added to each well, and the plate was placed in an incubator for 1-4 hrs. After adding 400 μl DMSO to treat the cells for 30 min., 200 μl samples were collected and placed in a 96-well plate to conduct the absorption measurement at 550 nm.
# (§2) Cancer cells were treated with Sal-B and EBA at concentrations of 0, 0.1, 0.2, 0.3, 0.4, 0.5 mM. After treating for 48 hrs, MTT was added, and then allowed to react for 3 hrs at 37° C. After that, DMSO was added and allowed to react for 30 min., the OD570 absorption values were measured. Cell viability was above 80% when nasopharyngeal cancer cells (Hone-1) were treated with […] Sal-B and EBA. […] But the cell viability remained above 70% for treating with 0.1 mM and 0.2 mM EBA. Similar results were obtained when prostate cancer cells (PC-3) were treated with the drugs: Cell viability was above 80% for treating PC-3 cells with 0.2 mM Sal-B or EBA.
# MTT testing was employed to observe the viability of cancer cells after treating with Sal-B and the six synthetic analogs.
# [2] = system: breast cancer cells (MCF-7); test: MTT cell viability, breast cancer cells; settings: MCF-7, different concentrations (0-0.5 mM), 48 hrs
# Protocol: as §1, §2
# [3] = system: ETAR protein expression; test: Western blot of ETAR protein expression in vascular smooth muscle cells; settings: 100 μg/ml, 48 hrs
# Protocol: The smooth muscle cells (5×10^5 cells in 35 mm culture dish) were treated with Sal-B and its analogs for 48 hrs, and then a proteinase inhibitor solution was used to collect proteins from the cells.
# The protein concentrations in the samples were calculated by using BSA as the standards to construct a standard curve. After mixing Bradford Protein assay reagent evenly with the standards or the samples, the OD595 absorption values were measured. Standard curve was constructed by plotting OD595 values of the BSA standards versus their concentrations. The protein concentrations of the samples were calculated from the standard curve.
# Bio-Rad's Mini-Protean III Dual Slab Cell instrument was used. A 12% polyacrylamide separating gel solution was prepared and placed into a electrophoretic gel preparation device. Deionized water was added to flat the surface of the separating gel solution, and the water was poured off after the gel had coagulated. A stacking gel solution containing 5% polyacrylamide was added and then a comb was inserted. The comb was removed after the stacking gel had coagulated, and the gel was placed into an upright electrophoresis tank. A suitable amount of running buffer was added, and then the protein samples were loaded into the wells of stacking gel layer. […]
# [4] = system: PC-3 cancer cells; test: Flow cytometry cell cycle analysis (sub-G1, apoptosis) of PC-3 cells; settings: PC-3, 0.4 mM, 48 hrs, PI flow cytometry; control around 1.18%
# Protocol: After suspending cells, the precooled 70% ethanol was used for fixing the cells. After centrifuging the mixture for 10 min. at 3,000 rpm, supernatant liquid was removed. Propidium iodide (PI) buffer (0.1% Triton X-100, 0.2 μg/ml RNase A, 40 μg/ml PI) was added, and then the solution was kept still at 37° C. for 30 min. After that, the cell cycle analysis was conducted by flow cytometry.
# Flow cytometry was used to determine whether Sal-B and its analogs induced apoptosis in cancer cells. After treating PC-3 cancer cells with 0.4 mM Sal-B and EBA, and 0.01 mM compounds B and A for 48 hrs, the cells were collected and allowed to react with PI buffer for 30 min. Flow cytometry was then employed to measure the cell cycle. Approximately 5.16% of PC-3 cancer cells were at sub-G1 phase after treating with Sal-B, roughly 5.27% were at sub-G1 phase after treating with compound B, and roughly 8.54% were at sub-G1 phase after treating with compound A. However, for the control, only around 1.18% of the cells were at sub-G1 phase. Therefore, Sal-B and its analogs (compounds B and A) thus caused a significant increase in the percentage of cells at sub-G1 phase.
Compound,Cell viability at higher concentrations [1],Effect on cancer cell viability [2],ETAR protein expression compared with control [3],PC-3 cancer cells at sub-G1 phase [4],"Viability of PC-3 cells as the concentration is increased ([1]; PC-3, MTT, increasing concentration, FIG. 1)"
epiblechnic acid [EBA],did not significantly reduce the cell viability,no significant effect on cancer cell viability,significantly reduced,approximately 1.73%,
"O=C(/C=C/c1ccc(O)c2c1[C@H](C(=O)O[C@H](Cc1ccc(O)c(O)c1)C(=O)[O-])[C@@H](c1ccc(O)c(O)c1)O2)O[C@H](Cc1ccc(O)c(O)c1)C(=O)[O-].[Mg+2] [Sal-B, magnesium lithospermate B]",the cell viability was reduced,no significant effect on cancer cell viability,significantly reduced,Approximately 5.16%,reduced as the concentration of Sal-B was increased
